Structures are written as SMILES.

Holding throughout (assay type): toxicity, cell-based
One data set deals with HEK-293T. Description: Incucyte cell viability with HEK293T. The settings on record: human, 10 µM, compound concentration 10 uM.
The test system of a further data set is Fibroblast. Description: Incucyte cell viability with human fibroblast. Conditions: 10 µM, compound concentration 10 uM.
The test system of the next data set is U2OS. Description: Incucyte cell viability with U2OS. Conditions: human, 10 µM, compound concentration 10 uM.
Further: unitless GR value; below 1 slowed growth and below 0 cell loss.

`COc1ccc(CC[C@@H](OC(=O)[C@@H]2CCCCN2C(=O)[C@H](c2cc(OC)c(OC)c(OC)c2)C2CCCCC2)c2cccc(OCCN3CCOCC3)c2)cc1OC`: the “Growth Rate” value is given as -0.44 in the data set with HEK-293T (0 h, replicate number 2); 0.38 with HEK-293T (12 h, replicate number 2); 0.94 with HEK-293T (18 h, replicate number 1); 0.26 in the data set on HEK-293T (18 h, replicate number 2); 0.27 with HEK-293T (24 h, replicate number 1); 0.24 with HEK-293T (24 h, replicate number 2). The “Growth Rate” value in the data set with Fibroblast (0 h, replicate number 1) is recorded as -1; in the data set on Fibroblast (12 h, replicate number 2) it was 0.99; in the data set on Fibroblast (24 h, replicate number 1), 0.97; with U2OS (0 h, replicate number 1), -1; in the data set on U2OS (0 h, replicate number 2), -0.99; with U2OS (6 h, replicate number 2) it was 0.91. For the same molecule, the “Growth Rate” value in the data set with U2OS (12 h, replicate number 2) was determined as 0.8; in the data set with U2OS (18 h, replicate number 2), 0.78; in the data set on U2OS (24 h, replicate number 2) it was 0.73.
Consider `COc1cc(-c2cc3ncccc3c(OC[C@H]3CNC(=O)C3)n2)cc(OC)c1OC1CCOCC1.O=C(O)C(F)(F)F`, for which the “Growth Rate” value with HEK-293T (0 h, replicate number 2) is 0.5; in the data set on HEK-293T (6 h, replicate number 1) it was 0.2; with HEK-293T (6 h, replicate number 2) it was -0.14; in the data set on HEK-293T (12 h, replicate number 1), 0.17; in the data set on HEK-293T (12 h, replicate number 2) it was 0.16; in the data set on HEK-293T (18 h, replicate number 1) it was 0.25. In addition, the “Growth Rate” value came to 0.34 in the data set with HEK-293T (18 h, replicate number 2); 0.33 in the data set on HEK-293T (24 h, replicate number 1); 0.49 with HEK-293T (24 h, replicate number 2); 0.4 in the data set with Fibroblast (0 h, replicate number 1); 0.72 in the data set on Fibroblast (6 h, replicate number 1); 0.67 in the data set with Fibroblast (6 h, replicate number 2). Besides, the “Growth Rate” value with Fibroblast (12 h, replicate number 2) is listed as 0.78; with Fibroblast (18 h, replicate number 1), 1; with Fibroblast (18 h, replicate number 2), 0.92; in the data set on Fibroblast (24 h, replicate number 2), 0.94; in the data set with U2OS (0 h, replicate number 1), -0.63; in the data set on U2OS (6 h, replicate number 2), 0.88. Besides, the “Growth Rate” value is 0.72 in the data set with U2OS (12 h, replicate number 1); 0.93 in the data set with U2OS (12 h, replicate number 2); 0.76 in the data set on U2OS (18 h, replicate number 1); 0.85 in the data set on U2OS (18 h, replicate number 2); 0.68 in the data set with U2OS (24 h, replicate number 1); 0.75 with U2OS (24 h, replicate number 2).
Regarding `Clc1cccc(Nc2nccc(NCCCN3CCOCC3)n2)c1`, the “Growth Rate” value in the data set on HEK-293T (0 h, replicate number 2) is 0.13; in the data set with HEK-293T (6 h, replicate number 1) it was 0.27; in the data set with HEK-293T (12 h, replicate number 1), 0.34; with HEK-293T (18 h, replicate number 1) it was 0.37; in the data set on HEK-293T (18 h, replicate number 2) it was 0.82; with HEK-293T (24 h, replicate number 1) it was 0.38. Moreover, the “Growth Rate” value was 0.69 in the data set with HEK-293T (24 h, replicate number 2); -0.99 with Fibroblast (0 h, replicate number 1); -0.07 in the data set with Fibroblast (0 h, replicate number 2); 0.51 in the data set with Fibroblast (6 h, replicate number 1); 0.14 with Fibroblast (6 h, replicate number 2); 0.59 in the data set on Fibroblast (12 h, replicate number 1). Further, the “Growth Rate” value in the data set on Fibroblast (12 h, replicate number 2) is given as 0.39; with Fibroblast (18 h, replicate number 1), 0.6; in the data set with Fibroblast (18 h, replicate number 2), 0.57; in the data set on Fibroblast (24 h, replicate number 1), 0.48; in the data set with Fibroblast (24 h, replicate number 2), 0.53; in the data set on U2OS (0 h, replicate number 1), -0.75. Further, the “Growth Rate” value in the data set on U2OS (6 h, replicate number 2) worked out at 0.73; in the data set on U2OS (12 h, replicate number 2) it was 0.73; in the data set on U2OS (18 h, replicate number 2), 0.82; in the data set with U2OS (24 h, replicate number 2), 0.7.
As for `COc1ccc(C(F)(F)F)cc1NC(=O)Nc1ccc(Oc2cc(C)nc(N)n2)c2ccccc12`, the “Growth Rate” value with HEK-293T (0 h, replicate number 2) is given as -0.09; with HEK-293T (6 h, replicate number 1) it was 0.58; in the data set with HEK-293T (12 h, replicate number 1) it was 0.67; in the data set on HEK-293T (12 h, replicate number 2), 0.92; in the data set with HEK-293T (18 h, replicate number 1), 0.55; in the data set with HEK-293T (18 h, replicate number 2) it was 0.87. Further, the “Growth Rate” value with HEK-293T (24 h, replicate number 1) was 0.6; with HEK-293T (24 h, replicate number 2), 0.81; with Fibroblast (0 h, replicate number 1) it was -1; in the data set on Fibroblast (0 h, replicate number 2), -0.09; in the data set on Fibroblast (6 h, replicate number 2) it was 0.32; with Fibroblast (12 h, replicate number 2), 0.87. Besides, the “Growth Rate” value in the data set with Fibroblast (18 h, replicate number 2) is 0.85; with Fibroblast (24 h, replicate number 2) it was 0.89; with U2OS (0 h, replicate number 1) it was -1.
Take `CN(C)[C@H]1CC[C@H](Nc2ncc3ncnc(Nc4ccc(F)c(Cl)c4)c3n2)CC1`: the “Growth Rate” value with HEK-293T (0 h, replicate number 2) was -1; with HEK-293T (6 h, replicate number 1) it was -0.21; with HEK-293T (12 h, replicate number 1) it was -0.11; with HEK-293T (18 h, replicate number 1) it was 0.12; in the data set with HEK-293T (24 h, replicate number 1), 0.23; in the data set on Fibroblast (0 h, replicate number 2), -1. For the same molecule, the “Growth Rate” value was 0.74 with Fibroblast (6 h, replicate number 1); 0.19 in the data set with Fibroblast (6 h, replicate number 2); 0.23 in the data set on Fibroblast (12 h, replicate number 1); -0.1 in the data set with Fibroblast (12 h, replicate number 2); 0.14 in the data set on Fibroblast (18 h, replicate number 1); -0.19 in the data set on Fibroblast (18 h, replicate number 2). The “Growth Rate” value in the data set with Fibroblast (24 h, replicate number 1) is 0.14; with Fibroblast (24 h, replicate number 2) it was -0.13; in the data set with U2OS (0 h, replicate number 1) it was -1; with U2OS (0 h, replicate number 2) it was 0.58; in the data set on U2OS (6 h, replicate number 2), 0.45; with U2OS (12 h, replicate number 1), 0.48. For the same molecule, the “Growth Rate” value is recorded as 0.5 in the data set on U2OS (12 h, replicate number 2); 0.38 in the data set with U2OS (18 h, replicate number 1); 0.48 with U2OS (18 h, replicate number 2); 0.45 with U2OS (24 h, replicate number 1); 0.47 with U2OS (24 h, replicate number 2).
Regarding `CCc1ncnc(N2CCN(C(C)=O)CC2)c1C#Cc1ccc(N)nc1.Cl.Cl`, the “Growth Rate” value in the data set with HEK-293T (0 h, replicate number 2) is listed as -0.97; in the data set on HEK-293T (6 h, replicate number 1) it was -0.05; in the data set on HEK-293T (6 h, replicate number 2) it was -0.04; in the data set with HEK-293T (12 h, replicate number 1), 0.06; in the data set with HEK-293T (12 h, replicate number 2) it was -0.05; in the data set on HEK-293T (18 h, replicate number 1), 0.05. For the same molecule, the “Growth Rate” value in the data set on HEK-293T (18 h, replicate number 2) was 0.01; with HEK-293T (24 h, replicate number 1) it was 0.01; in the data set on HEK-293T (24 h, replicate number 2), 0.02; with Fibroblast (6 h, replicate number 2) it was 0.3; in the data set on Fibroblast (12 h, replicate number 1), 0.68; in the data set on Fibroblast (12 h, replicate number 2), 0.76. The “Growth Rate” value in the data set on Fibroblast (18 h, replicate number 1) is 0.66; in the data set on Fibroblast (18 h, replicate number 2) it was 0.52; in the data set with Fibroblast (24 h, replicate number 1), 0.61; with Fibroblast (24 h, replicate number 2), 0.53; in the data set on U2OS (0 h, replicate number 1), -0.47; in the data set on U2OS (6 h, replicate number 1), 0.86. Besides, the “Growth Rate” value is given as 0.73 in the data set on U2OS (12 h, replicate number 1); 0.99 in the data set on U2OS (12 h, replicate number 2); 0.73 in the data set on U2OS (18 h, replicate number 1); 0.8 with U2OS (18 h, replicate number 2); 0.7 with U2OS (24 h, replicate number 1); 0.68 in the data set on U2OS (24 h, replicate number 2).
Turning to `Cn1c(Nc2c(Cl)cccc2Cl)nc2ccc3nc[nH]c(=O)c3c21`, the “Growth Rate” value with HEK-293T (0 h, replicate number 2) was -1; in the data set on HEK-293T (6 h, replicate number 1), 0.08; in the data set with HEK-293T (6 h, replicate number 2), 0.03; in the data set with Fibroblast (6 h, replicate number 1), 0.64; in the data set with Fibroblast (6 h, replicate number 2) it was 0.1; with Fibroblast (12 h, replicate number 1) it was 0.65. The “Growth Rate” value is given as 0.35 in the data set with Fibroblast (12 h, replicate number 2); 0.71 in the data set on Fibroblast (18 h, replicate number 1); 0.42 with Fibroblast (18 h, replicate number 2); 0.51 in the data set with Fibroblast (24 h, replicate number 1); 0.33 in the data set with Fibroblast (24 h, replicate number 2); -0.24 with U2OS (0 h, replicate number 1). Moreover, the “Growth Rate” value with U2OS (0 h, replicate number 2) is reported as 0.87; in the data set on U2OS (6 h, replicate number 1), 0.95; in the data set on U2OS (6 h, replicate number 2), 0.19; in the data set with U2OS (12 h, replicate number 1), 0.97; in the data set on U2OS (12 h, replicate number 2), 0.74; with U2OS (18 h, replicate number 1) it was 0.86. For the same molecule, the “Growth Rate” value is recorded as 0.83 with U2OS (18 h, replicate number 2); 0.98 in the data set on U2OS (24 h, replicate number 1); 0.85 in the data set on U2OS (24 h, replicate number 2).

Values taken from ChEMBL document CHEMBL5303304, “EUbOPEN Chemogenomics Library - IncuCyte” (2023).
